The text below walks through data of patent US20040001818A1, “Methods of inhibiting angiogenesis using NADPH oxidase inhibitors” (priority 2000, published 2004).

The subject of one assay is MnSOD mRNA. Kind of assay: Northern blot of MnSOD mRNA in HCAECs. The assay is classed as cell-based, human. The following applies: for VEGF stimulation of MnSOD: HCAEC pre-incubated with 1 μM GF-109203X, 50 μM PD98059 or 20 μM SB 203580; for VEGF-mediated induction of MnSOD: serum-starved HCAECs, VEGF 50 ng/ml, four hours, DPI 5, 25, 100 μM, apocynin 0.3, 2, 5 mM, allopurinol 0.1, 0.5 mM. As to the method: Cell culture. Human coronary artery endothelial cells (HCAECs) (Clonetics Corporation, San Diego, Calif., USA) and human pulmonary artery endothelial cells (HPAECs) were grown in Endothelial Growth Medium-2-MV (EGM-2-MV) BulletKit (Clonetics Corporation, San Diego, Calif., USA). At 80-90% confluence, the cells were serum-starved in DMEM containing 0.5% FBS for 24 hours and subsequently treated with VEGF-supplemented medium for the times indicated. Human recombinant VEGF was purchased from PeproTech, Inc. (Rocky Hill, N.J., USA). […] In other studies, the serum-starved cells were pretreated with the MEK inhibitor PD98059 at a final concentration of 50 μM or a specific PKC inhibitor bisindolylmaleimide I (BIM; CalBiochem, San Diego, Calif., USA) at a final concentration of 5 μM for 30 minutes prior to addition of growth factors. An equal amount of DMSO was added to the control plates. Northern blot analyses. Ten micrograms total RNA was loaded on a 0.7% formaldehyde-containing agarose gel. The RNA was transferred to nylon membrane, covalently cross-linked with UV radiation, prehybridized for 6 hours, and hybridized for 18 hours at 42° C. with a [^32P]dCTP-labeled cDNA probe containing MnSOD or eNOS cDNA sequence. The membranes were subsequently stripped and probed with a radiolabeled 18S-ribosome probe. For actinomycin D experiments, HCAEC cells were pretreated with 10 μg/ml actinomycin D (Sigma Chemical Company, St. Louis, Mo., USA) for 30 minutes before addition of VEGF and were harvested for total RNA one hour later.
To determine whether VEGF induced expression of MnSOD in primary endothelial cell cultures, HCAECs and HPAECs were serum starved for 24 hours, treated with 40 ng/ml VEGF for 0, 0.5, 1, 2, 4, 12 and 24 hours, and then harvested for total RNA. Northern blots were performed and probed for human MnSOD. […] The membranes were then stripped and reprobed for eNOS.
To determine whether the response of MnSOD to VEGF was mediated by ROS, HCAECs were serum starved and then treated with VEGF in the absence or presence of inhibitors of NADPH oxidase (DPI, apocynin), xanthine oxidase (allopurinol) and nitric oxide synthase (L-NAME).

A further assay has as its system ROS. Kind of assay: ROS generation: DCF oxidation by flow cytometry in DCFDA-labeled HCAECs. Format: cell-based, human. Conditions: relative to basal rate of control cells. As to the method: Western blot analyses. Whole cell protein extracts were prepared from serum-starved HCAECs and HPAECs one hour following addition of growth factor-supplemented or mock-treated media. Cells were washed twice with cold phosphate-buffered saline, harvested with a cell scraper, and lysed in ice-cold lysis buffer containing 20 mM HEPES, pH 7.5, 150 mM NaCl, 1% NP-40, 0.1% SDS, 1 mM EDTA, 1 mM DTT, 0.5 mM phenylmethylsulfonyl fluoride (PMSF), and the protease inhibitor cocktail (Boehringer Mannheim, Mannheim, Germany) for one hour. The resulting lysates were centrifuged at 10,000× g for 20 minutes and the supernatants were saved as whole cell protein extracts. Forty micrograms of protein were separated by 10% SDS-PAGE and electrotransferred to nitrocellulose membranes. Membranes were blocked with 5% nonfat dry milk in Tris-buffered saline with 0.1% Tween 20 for one hour at room temperature. The blot was incubated with primary rabbit polyclonal anti-MnSOD IgG (1:1000 dilution) (Santa Cruz Biotechnology Inc., Santa Cruz, Calif., USA) overnight at 4° C., followed by secondary antibody goat-anti-rabbit horseradish peroxidase conjugate (1:1000 dilution) (Pierce, Rockford, Ill., USA). The blot was washed extensively between each incubation step. Peroxidase activity was visualized with an enhanced chemiluminescense substrate system (Amersham, Arlington Heights, Ill., USA). Membranes were stripped and probed for eNOS and β-actin. Flow cytometry. Endothelial cells were labeled with DCFDA and oxidation of DCF was measured by flow cytometry.
To test whether VEGF increases ROS production in endothelial cells, HCAECs were labeled with […] DCFDA and oxidation of DCF was measured by flow cytometry. […] PMS is known to induce free oxygen radicals.
On the technique in general: In flow cytometry, cells or beads pass a laser one at a time.

The subject of assay [1] is human coronary artery endothelial cells (HCAECs). Kind of assay: [3H]-thymidine incorporation in HCAECs. Format: cell-based. The following applies: for thymidine incorporation: HCAECs grown in 10% FBS. As to the method:
To determine whether the effect of serum or VEGF on endothelial cell proliferation might also be dependent upon ambient levels of ROS, HCAECs were grown to confluence, split into 24 wells, serum starved for eight hours and then incubated in the absence or presence of VEGF for 16 or 24 hours. All wells received 1 μCi of [^3H]-thymidine at the time of treatment. After 16 or 24 hours, medium was removed, and the wells were washed 3 times with PBS. Radioactivity was extracted and thymidine incorporation measured using a scintillation counter.
On the technique in general: Uptake of a labelled nucleoside into DNA is a usual measure of proliferation.

For assay [2], the system named is mouse embryonic fibroblasts. Kind of assay: [3H]-thymidine incorporation in primary murine embryonic fibroblasts. Conditions: 10% FBS, 16 hours. Format: cell-based. The procedure: To determine whether the effect of NADPH oxidase inhibition was specific to endothelial cells, the effect of the various inhibitors on thymidine incorporation in primary murine embryonic fibroblasts was tested. The results are shown in FIG. 13, which is a histogram showing thymidine incorporation (y-axis) in mouse embryonic fibroblasts that have been grown in 0.5% FBS or 10% FBS in the absence (10% FBS) or presence of inhibitors (Apo=apocynin; allo=allopurinol; L-NAME) for 16 hours.

Assay [3] relates to human coronary artery endothelial cells (HCAECs). The assay is described as follows: VEGF-induced chemotaxis of HCAECs, Boyden chamber assay. Format: cell-based. The following applies: for inhibition of migration, dose dependence: VEGF 50 ng/ml, DPI 0.5, 1.0, 5.0, 10 μM, AEBSF 5, 50, 100, 250 μM. The procedure:
The capacity of NADPH oxidase inhibitors to block migration of human coronary artery endothelial cells was tested. In these studies, VEGF-induced chemotaxis was tested with the Boyden chamber assay. Human coronary artery endothelial cells were serum starved in 0.5% FBS overnight. 25,000 cells were seeded into the upper chamber in the absence or presence of DPI, while media containing 0.5% FBS and 40 ng/ml was placed into the lower chamber. The chamber was incubated for 4 hours at 37° C., at which time the polycarbonate filters were harvested and counted for migrating cells. The results are shown in FIG. 14, which is a histogram showing the migration in terms of cell count (y-axis) of human coronary artery endothelial cells in a Boyden chamber. The cells were serum starved in 0.5% FBS and treated with either VEGF, DPI or VEGF+DPI (x-axis).
The effect of AEBSF on VEGF-induced migration was also studied. HCAECs were treated as above and treated by either VEGF, VEGF+100 μM allopurinol, or VEGF+250 μM AEBSF. The results are shown in FIG. 15, which is a histogram showing migration in terms of cell count (y-axis) when treated (x-axis). The NADPH oxidase inhibitor AEBSF abrograted the VEGF-mediated chemotaxis of HCAECs.
These are histograms showing VEGF-mediated chemotaxis in control HCAECs (“C”), or HCAECs treated with 50 ng/ml VEGF in the absence or presence of increasing doses of DPI (0.5, 1.0, 5.0 or 10 μM; FIG. 16A) or AEBSF (5, 50, 100 or 250 μM; FIG. 16B).

[4] abbreviates: serum starved (0.5% FBS) and VEGF-treated HCAECs, 16 or 24 hours.

Molecules are shown by their SMILES. Starred links: 1 amine or outer side, 2 acyl side, 3 side chain; linkers in the order of their positions; H or OH if unused. Positions of bridges follow the written chain, without caps; N, C: chain ends. Non-standard residues stand in square brackets, D forms with d. Residues, ends and D or L forms follow the SMILES beside them. Chains are numbered I, II in the order given. Actinocin(9to1) = Cc1c2oc3c(C)ccc(C(=O)[*:1])c3nc-2c(C(=O)[*:2])c(N)c1=O; NMeV = CN[C@H](C(=O)O)C(C)C; Sar = CNCC(=O)O Bounds are passed on as bounds.

Regarding `CN(C)CCCn1cc(C2=C(c3c[nH]c4ccccc34)C(=O)NC2=O)c2ccccc21` [GF-109203X], the “VEGF stimulation of MnSOD” value in the assay with MnSOD mRNA is “significantly reduced”.
With `CN(C)CCCn1cc(C2=C(c3c[nH]c4ccccc34)C(=O)NC2=O)c2ccccc21` [BIM, bisindolylmaleimide I], the “VEGF-mediated induction of MnSOD mRNA” value in the assay on MnSOD mRNA (preincubation, BIM 0.1, 1, 5 μM, PD98059 5, 20, 100 μM) was “inhibited”.
For `CCCCCCCCCCCCCC(=O)O[C@@H]1[C@@H](C)[C@@]2(O)[C@@H](C=C(CO)C[C@]3(O)C(=O)C(C)=C[C@@H]23)[C@@H]2C(C)(C)[C@]12OC(C)=O` [PMA], in the assay on ROS, the “DCF oxidation (ROS production)” value is “significantly increased”.
`Oc1ncnc2[nH]ncc12` [allopurinol]: the “DCF oxidation (ROS production)” value with ROS was “no effect”. In addition, in assay [1], the thymidine incorporation result is given as “no effect”.
Take `O=C1c2ccccc2Cc2ccccc21` [anthrone]: the thymidine uptake entry in assay [1] (setting [4]) is “profound inhibition”.
Turning to `Cc1c2oc3c(C)ccc(C(=O)N[C@@H]4C(=O)N[C@H](C(C)C)C(=O)N5CCC[C@H]5C(=O)N(C)CC(=O)N(C)[C@@H](C(C)C)C(=O)O[C@@H]4C)c3nc-2c(C(=O)N[C@@H]2C(=O)N[C@H](C(C)C)C(=O)N3CCC[C@H]3C(=O)N(C)CC(=O)N(C)[C@@H](C(C)C)C(=O)O[C@@H]2C)c(N)c1=O` [Actinomycin D, actinomycin D] (I: T[dV]P[Sar][NMeV] / II: T[dV]P[Sar][NMeV]; ester I:1-I:C, II:1-II:C; linker I:N-II:N via Actinocin(9to1)), the “VEGF-mediated induction of MnSOD mRNA” value in the assay with MnSOD mRNA (HCAEC, 10 μg/ml actinomycin D for 30 minutes before 60 minute incubation with VEGF) is “completely abolished”.
For the compound `COc1cc(C(C)=O)ccc1O` [apocynin], the “VEGF-mediated induction of MnSOD” value with MnSOD mRNA is “inhibited”. The serum-induced thymidine incorporation result in assay [1] (HCAECs, 5.0% FBS, apocynin 300 μM, 500 μM, 1 mM, 2 mM, 3 mM) is reported as “dose-dependent inhibition”. Moreover, the thymidine incorporation result in assay [2] is given as “failed to reduce incorporation below baseline”.
Regarding `C[S+]([O-])c1ccc(-c2nc(-c3ccncc3)c(-c3ccc(F)cc3)[nH]2)cc1` (stereo not shown) [SB 203580], in the assay with MnSOD mRNA, the “VEGF stimulation of MnSOD” value is “not”.
In the case of `COC(=O)[C@@H](N)CCCNC(=N)N[N+](=O)[O-]` [L-NAME], the “DCF oxidation (ROS production)” value in the assay on ROS was “no effect”. Also, the thymidine incorporation result in assay [1] is reported as “no effect”.
On to `COc1cccc(-c2cc(=O)c3ccccc3o2)c1N` [PD98059], for which, in the assay with MnSOD mRNA, the “VEGF stimulation of MnSOD” value is “not”.
`COS(=O)(=O)[O-].C[n+]1c2ccccc2nc2ccccc21` [PMS]: the “DCF oxidation (ROS production)” value with ROS was “increased ROS production”.
Turning to `NCCc1ccc(S(=O)(=O)F)cc1` [AEBSF, 4-(2-aminoethyl)-benzenesulfonyl fluoride], the “VEGF-mediated induction of MnSOD mRNA” value in the assay with MnSOD mRNA (pretreatment with the inhibitor, concentration not given) is recorded as “inhibited”. Further, in assay [3], the “inhibition of migration, dose dependence” value is “dose-dependent”. The VEGF-mediated chemotaxis entry in assay [3] (VEGF + 250 μM AEBSF) is recorded as “abrograted”. Moreover, in assay [1] (HCAECs, 5% FBS, AEBSF 5, 50, 100, 500 μM), the thymidine uptake result is listed as “inhibited”.
With `c1ccc2c(c1)[I+]c1ccccc1-2` [DPI, diphenyleneiodonium], the “VEGF-mediated induction of MnSOD” value in the assay with MnSOD mRNA was “inhibited”. Further, the “migration (cell count)” value in assay [3] (25 μM DPI, VEGF in lower chamber, 4 hours) is reported as “profound inhibition”. Further, the “inhibition of migration, dose dependence” value in assay [3] is “dose-dependent”. Further, the “DCF oxidation (ROS production)” value in the assay with ROS was “significantly inhibited”. Besides, the “DPI concentration inhibiting serum-induced thymidine incorporation” value in assay [1] (HCAECs in 5.0% FBS, doses 1, 5, 25, 40, 80 μM) was no more than 1 µM. Further, in assay [1] (setting [4]), the thymidine uptake result was “profound inhibition”.
